# According to patent US20070071677A1 (priority 2003, published 2007):
# Ends that are not written are not given here.
# System: cell lines described in Example 3 (293T, HeLa, CT26, MCF-7)
# Assay: Cytotoxicity of LMWP peptides, MTT colorimetric assay
# Type: cell-based, human, murine
# Conditions: FIG. 5; TAT at 5.0 mM and 10.0 mM
# Protocol: Cytotoxicity of the LMWP peptides and TDSP5-gelonin conjugates were examined using the cell lines described in Example 3. In brief, cells grown to 75% confluency were incubated with various concentrations of LMWP peptides, TAT peptide, TDSP5-gelonin conjugate, or TAT-gelonin conjugates. Cell proliferation was measured over 3 days, and cytotoxicity was determined using a colorimetric assay, which was performed by removing the cell culture medium and replacing it with PBS containing 5 mg/ml of 3-(4,5-dimethylthiazol-2-yl)-2,5-diphenyltetrazolium bromide (MTT). The absorbance of the cell culture medium following MTT addition was measured at 540 nm, and the survival ratio was determined by the ratio of the absorbance of sample-treated cells to that of control cells.
row,Substance,cell cytotoxicity (in words)
1,ASRRRRRGGRRRR [TDSP4],little or no toxicity
2,PRRRRR [TDSP2],little or no toxicity
3,PRRRRSSRRP [TDSP3],little or no toxicity
4,VSRRRRRRGGRRRR [TDSP5],little or no toxicity
